Measured values as given in ChEMBL document CHEMBL5244258, “PROTACs: New method to degrade transcription regulating proteins” (Eur J Med Chem, 2020).
Blank lines part the entries; values can stand above or below the compound they belong to.

Key:
[1] = target: Bromodomain-containing protein 4 (Homo sapiens) (UniProt O60885); assay: Induction of BRD4 degradation in human HeLa cells assessed as maximum efficacy at 1 uM relative to control; assay type: cell-based
[2] = target: T1, von Hippel-Lindau disease tumor suppressor/Bromodomain-containing protein 4 (Homo sapiens, UniProt O60885+P40337); assay: Protac activity at VHL/BRD4 in human HeLa cells assessed as BRD4 degradation by Western blot analysis relative to control; assay type: cell-based
T1 sequence (P40337 whole entry, looked up, other chains not shown): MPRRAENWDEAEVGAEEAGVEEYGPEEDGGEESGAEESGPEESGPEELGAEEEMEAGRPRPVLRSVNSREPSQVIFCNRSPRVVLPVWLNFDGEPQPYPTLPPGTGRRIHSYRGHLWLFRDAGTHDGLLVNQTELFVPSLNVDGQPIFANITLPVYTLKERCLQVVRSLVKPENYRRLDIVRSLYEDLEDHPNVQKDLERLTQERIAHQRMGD

[3] = target: T1, von Hippel-Lindau disease tumor suppressor/Bromodomain-containing protein 4; assay: Protac activity at VHL/BRD4 in human HeLa cells assessed as BRD4 degradation at 1 uM by Western blot analysis relative to control; assay type: cell-based
[4] = target: T1, von Hippel-Lindau disease tumor suppressor/Bromodomain-containing protein 4; assay: Protac activity at BRD4/VHL (unknown origin) assessed as maximum efficacy relative to control
[5] = target: T2, Androgen receptor (Homo sapiens) (UniProt P10275); assay: Induction of AR degradation in human HeLa cells assessed as maximum efficacy at 100 nM relative to control; assay type: cell-based
T2 sequence (whole entry): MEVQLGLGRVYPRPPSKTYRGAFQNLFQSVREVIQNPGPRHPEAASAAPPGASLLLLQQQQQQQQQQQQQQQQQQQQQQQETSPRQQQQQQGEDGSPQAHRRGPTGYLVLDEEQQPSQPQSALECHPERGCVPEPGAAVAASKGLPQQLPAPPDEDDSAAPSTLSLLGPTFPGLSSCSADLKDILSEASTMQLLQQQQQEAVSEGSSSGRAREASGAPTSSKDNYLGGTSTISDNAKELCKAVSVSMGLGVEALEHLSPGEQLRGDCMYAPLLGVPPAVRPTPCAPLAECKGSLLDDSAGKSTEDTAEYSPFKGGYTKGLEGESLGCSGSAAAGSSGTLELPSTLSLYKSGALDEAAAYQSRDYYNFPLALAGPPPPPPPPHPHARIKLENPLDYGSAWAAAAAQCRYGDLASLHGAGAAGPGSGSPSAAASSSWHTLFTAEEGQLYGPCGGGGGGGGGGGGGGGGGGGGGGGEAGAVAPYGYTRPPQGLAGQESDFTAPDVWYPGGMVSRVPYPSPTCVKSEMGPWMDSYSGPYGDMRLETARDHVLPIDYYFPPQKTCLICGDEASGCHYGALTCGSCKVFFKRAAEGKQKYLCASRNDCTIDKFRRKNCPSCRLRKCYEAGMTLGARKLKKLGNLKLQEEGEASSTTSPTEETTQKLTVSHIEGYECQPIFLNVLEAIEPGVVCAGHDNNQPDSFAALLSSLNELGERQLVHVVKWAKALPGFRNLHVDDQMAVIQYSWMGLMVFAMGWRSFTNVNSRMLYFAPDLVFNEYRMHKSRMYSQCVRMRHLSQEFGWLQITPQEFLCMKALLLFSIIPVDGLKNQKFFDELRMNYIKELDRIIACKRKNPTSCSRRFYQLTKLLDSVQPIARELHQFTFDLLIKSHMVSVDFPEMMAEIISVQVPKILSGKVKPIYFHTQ

[6] = target: T3, Estrogen receptor (Homo sapiens, UniProt P03372); assay: Induction of estrogen receptor degradation in human MCF7; assay type: cell-based
T3 sequence (P03372 whole entry): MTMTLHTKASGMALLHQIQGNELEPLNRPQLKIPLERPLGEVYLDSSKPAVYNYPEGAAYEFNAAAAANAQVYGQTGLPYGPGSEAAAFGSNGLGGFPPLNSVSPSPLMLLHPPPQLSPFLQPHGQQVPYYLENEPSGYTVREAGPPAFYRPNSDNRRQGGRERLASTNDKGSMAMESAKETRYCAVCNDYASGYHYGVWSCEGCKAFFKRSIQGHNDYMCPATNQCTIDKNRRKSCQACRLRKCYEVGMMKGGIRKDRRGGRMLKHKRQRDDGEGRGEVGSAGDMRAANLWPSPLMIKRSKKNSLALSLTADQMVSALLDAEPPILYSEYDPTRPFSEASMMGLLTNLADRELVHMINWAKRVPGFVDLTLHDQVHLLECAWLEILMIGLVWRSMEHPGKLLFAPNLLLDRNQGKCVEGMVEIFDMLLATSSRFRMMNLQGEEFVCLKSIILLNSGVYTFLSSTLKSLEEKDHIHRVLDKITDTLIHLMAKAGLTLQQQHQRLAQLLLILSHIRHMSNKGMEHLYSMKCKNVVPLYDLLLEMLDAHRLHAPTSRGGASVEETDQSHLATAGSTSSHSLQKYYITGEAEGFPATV

[7] = target: T2, Androgen receptor (Homo sapiens); assay: Induction of AR degradation in human HeLa cells assessed as maximum efficacy at 3 nM relative to control; assay type: cell-based
[8] = target: T4, Estrogen receptor (Homo sapiens) (UniProt P03372); assay: Induction of estrogen receptor degradation in human MCF7 cells assessed as maximum efficacy relative to control; assay type: cell-based
T4 sequence (whole entry): T3 sequence (P03372 whole entry)

[9] = target: T5, von Hippel-Lindau disease tumor suppressor/Estrogen receptor (Homo sapiens, UniProt P03372+P40337); assay: Protac activity at ER/VHL (unknown origin) degradation in human MCF7 cells by immunoblotting analysis; assay type: cell-based
Target sequence in this assay (P40337 whole entry, one chain of several): as the sequence (P40337 whole entry, looked up, other chains not shown) above

[10] = target: von Hippel-Lindau disease tumor suppressor/Steroid hormone receptor ERR1 (Homo sapiens) (UniProt P11474+P40337); assay: Protac activity at VHL/ERRalpha in human MCF7 cells assessed as maximum efficacy relative to control; assay type: cell-based
[11] = target: T5, von Hippel-Lindau disease tumor suppressor/Estrogen receptor; assay: Protac activity at ER/VHL (unknown origin) degradation in human MCF7 cells assessed as maximum efficacy by immunoblotting analysis relative to control; assay type: cell-based
[12] = test system: HCT-116; assay: Antiproliferative activity against human HCT-116 cells assessed as reduction in cell viability measured for 48 hrs by MTT assay; assay type: functional
[13] = target: T6, Bromodomain-containing protein 2 (Homo sapiens, UniProt P25440); assay: Induction of BRD2 degradation (unknown origin)
[14] = target: T6, Bromodomain-containing protein 2; assay: Induction of BRD2 degradation (unknown origin) relative to control
Target sequence in this assay (P25440 whole entry, looked up): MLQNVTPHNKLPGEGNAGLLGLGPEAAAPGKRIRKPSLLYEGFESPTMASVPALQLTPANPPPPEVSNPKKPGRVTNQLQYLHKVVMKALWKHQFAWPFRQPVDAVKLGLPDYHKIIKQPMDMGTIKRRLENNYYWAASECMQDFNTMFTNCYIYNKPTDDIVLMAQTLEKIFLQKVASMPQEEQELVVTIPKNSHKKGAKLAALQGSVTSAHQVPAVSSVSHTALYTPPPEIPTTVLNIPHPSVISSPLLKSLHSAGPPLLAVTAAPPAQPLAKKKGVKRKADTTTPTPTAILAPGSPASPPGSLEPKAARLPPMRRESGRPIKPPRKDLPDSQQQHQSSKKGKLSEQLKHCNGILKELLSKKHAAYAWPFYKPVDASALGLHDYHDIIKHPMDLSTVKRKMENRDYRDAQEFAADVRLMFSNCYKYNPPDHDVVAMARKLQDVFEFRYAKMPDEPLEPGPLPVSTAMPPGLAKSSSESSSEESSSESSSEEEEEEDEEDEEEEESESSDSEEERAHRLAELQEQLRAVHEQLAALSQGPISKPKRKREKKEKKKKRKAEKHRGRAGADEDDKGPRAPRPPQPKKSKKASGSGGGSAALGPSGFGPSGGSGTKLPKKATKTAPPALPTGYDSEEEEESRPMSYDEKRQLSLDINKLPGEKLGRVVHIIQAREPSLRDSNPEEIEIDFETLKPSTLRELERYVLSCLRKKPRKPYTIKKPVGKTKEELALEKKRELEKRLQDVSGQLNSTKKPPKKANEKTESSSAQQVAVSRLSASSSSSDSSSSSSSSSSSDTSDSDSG

[15] = target: von Hippel-Lindau disease tumor suppressor/SWI/SNF-related matrix-associated actin-dependent regulator of chromatin subfamily A member 4 (Homo sapiens, UniProt P51532+P40337); assay: PROTAC activity at SMARCA4/VHL in human MV4-11 cells assessed as degradation of SMARCA4 measured for 24 hrs by Western blot analysis; assay type: cell-based
von Hippel-Lindau disease tumor suppressor/SWI/SNF-related matrix-associated actin-dependent regulator of chromatin subfamily A member 4, sequence (P51532 whole entry): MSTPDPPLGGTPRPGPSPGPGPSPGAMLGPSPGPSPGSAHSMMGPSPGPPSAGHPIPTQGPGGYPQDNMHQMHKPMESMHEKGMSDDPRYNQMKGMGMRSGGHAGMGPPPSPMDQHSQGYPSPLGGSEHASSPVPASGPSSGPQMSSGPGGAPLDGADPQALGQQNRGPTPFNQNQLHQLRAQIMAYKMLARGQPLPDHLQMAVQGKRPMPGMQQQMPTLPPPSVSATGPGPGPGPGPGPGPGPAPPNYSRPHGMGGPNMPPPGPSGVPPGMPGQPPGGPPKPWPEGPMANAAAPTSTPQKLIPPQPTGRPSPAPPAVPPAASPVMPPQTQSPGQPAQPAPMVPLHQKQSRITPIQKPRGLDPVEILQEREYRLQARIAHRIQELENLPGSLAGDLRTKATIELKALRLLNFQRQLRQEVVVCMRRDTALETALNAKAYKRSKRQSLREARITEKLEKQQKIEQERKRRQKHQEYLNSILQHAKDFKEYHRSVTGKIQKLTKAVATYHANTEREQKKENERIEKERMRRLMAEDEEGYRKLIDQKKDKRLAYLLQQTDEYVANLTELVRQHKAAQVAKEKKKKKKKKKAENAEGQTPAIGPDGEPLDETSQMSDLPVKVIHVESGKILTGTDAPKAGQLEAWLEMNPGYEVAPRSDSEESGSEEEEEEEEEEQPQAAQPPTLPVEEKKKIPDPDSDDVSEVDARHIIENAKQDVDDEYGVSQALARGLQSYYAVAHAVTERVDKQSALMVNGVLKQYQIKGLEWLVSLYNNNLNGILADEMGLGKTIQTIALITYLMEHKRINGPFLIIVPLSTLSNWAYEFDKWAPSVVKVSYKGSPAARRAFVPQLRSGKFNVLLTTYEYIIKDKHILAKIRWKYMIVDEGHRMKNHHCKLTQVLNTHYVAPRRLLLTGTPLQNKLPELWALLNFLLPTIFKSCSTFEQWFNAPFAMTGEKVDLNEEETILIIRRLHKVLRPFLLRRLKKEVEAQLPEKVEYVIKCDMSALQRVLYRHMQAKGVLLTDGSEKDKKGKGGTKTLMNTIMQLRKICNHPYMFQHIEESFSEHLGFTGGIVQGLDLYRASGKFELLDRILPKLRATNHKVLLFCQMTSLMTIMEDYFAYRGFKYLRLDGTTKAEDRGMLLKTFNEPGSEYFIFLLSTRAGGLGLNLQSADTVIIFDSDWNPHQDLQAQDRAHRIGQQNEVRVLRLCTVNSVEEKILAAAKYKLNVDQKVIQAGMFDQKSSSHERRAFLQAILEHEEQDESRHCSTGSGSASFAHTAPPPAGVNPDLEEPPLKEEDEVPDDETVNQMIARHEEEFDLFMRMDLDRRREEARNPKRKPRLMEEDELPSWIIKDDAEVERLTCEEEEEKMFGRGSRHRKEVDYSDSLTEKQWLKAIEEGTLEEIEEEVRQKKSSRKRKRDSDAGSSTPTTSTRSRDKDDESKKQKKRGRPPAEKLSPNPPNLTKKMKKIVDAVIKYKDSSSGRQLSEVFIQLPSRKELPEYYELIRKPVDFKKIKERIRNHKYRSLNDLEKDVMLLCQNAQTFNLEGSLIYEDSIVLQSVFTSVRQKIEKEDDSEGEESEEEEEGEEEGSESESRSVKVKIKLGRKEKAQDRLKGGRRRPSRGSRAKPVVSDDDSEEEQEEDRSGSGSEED
von Hippel-Lindau disease tumor suppressor/SWI/SNF-related matrix-associated actin-dependent regulator of chromatin subfamily A member 4, sequence (P40337 whole entry): as the sequence (P40337 whole entry, looked up, other chains not shown) above

[16] = test system: MV4-11; assay: Antiproliferative activity against human MV4-11 cells assessed as growth inhibition; assay type: functional, cell-based
[17] = target: T7, von Hippel-Lindau disease tumor suppressor/SWI/SNF-related matrix-associated actin-dependent regulator of chromatin subfamily A member 2 (Homo sapiens, UniProt P51531+P40337); assay: PROTAC activity at SMARCA2/VHL in human MV4-11 cells assessed as degradation of SMARCA2 by Western blot analysis; assay type: cell-based
Target sequence in this assay (P51531 whole entry): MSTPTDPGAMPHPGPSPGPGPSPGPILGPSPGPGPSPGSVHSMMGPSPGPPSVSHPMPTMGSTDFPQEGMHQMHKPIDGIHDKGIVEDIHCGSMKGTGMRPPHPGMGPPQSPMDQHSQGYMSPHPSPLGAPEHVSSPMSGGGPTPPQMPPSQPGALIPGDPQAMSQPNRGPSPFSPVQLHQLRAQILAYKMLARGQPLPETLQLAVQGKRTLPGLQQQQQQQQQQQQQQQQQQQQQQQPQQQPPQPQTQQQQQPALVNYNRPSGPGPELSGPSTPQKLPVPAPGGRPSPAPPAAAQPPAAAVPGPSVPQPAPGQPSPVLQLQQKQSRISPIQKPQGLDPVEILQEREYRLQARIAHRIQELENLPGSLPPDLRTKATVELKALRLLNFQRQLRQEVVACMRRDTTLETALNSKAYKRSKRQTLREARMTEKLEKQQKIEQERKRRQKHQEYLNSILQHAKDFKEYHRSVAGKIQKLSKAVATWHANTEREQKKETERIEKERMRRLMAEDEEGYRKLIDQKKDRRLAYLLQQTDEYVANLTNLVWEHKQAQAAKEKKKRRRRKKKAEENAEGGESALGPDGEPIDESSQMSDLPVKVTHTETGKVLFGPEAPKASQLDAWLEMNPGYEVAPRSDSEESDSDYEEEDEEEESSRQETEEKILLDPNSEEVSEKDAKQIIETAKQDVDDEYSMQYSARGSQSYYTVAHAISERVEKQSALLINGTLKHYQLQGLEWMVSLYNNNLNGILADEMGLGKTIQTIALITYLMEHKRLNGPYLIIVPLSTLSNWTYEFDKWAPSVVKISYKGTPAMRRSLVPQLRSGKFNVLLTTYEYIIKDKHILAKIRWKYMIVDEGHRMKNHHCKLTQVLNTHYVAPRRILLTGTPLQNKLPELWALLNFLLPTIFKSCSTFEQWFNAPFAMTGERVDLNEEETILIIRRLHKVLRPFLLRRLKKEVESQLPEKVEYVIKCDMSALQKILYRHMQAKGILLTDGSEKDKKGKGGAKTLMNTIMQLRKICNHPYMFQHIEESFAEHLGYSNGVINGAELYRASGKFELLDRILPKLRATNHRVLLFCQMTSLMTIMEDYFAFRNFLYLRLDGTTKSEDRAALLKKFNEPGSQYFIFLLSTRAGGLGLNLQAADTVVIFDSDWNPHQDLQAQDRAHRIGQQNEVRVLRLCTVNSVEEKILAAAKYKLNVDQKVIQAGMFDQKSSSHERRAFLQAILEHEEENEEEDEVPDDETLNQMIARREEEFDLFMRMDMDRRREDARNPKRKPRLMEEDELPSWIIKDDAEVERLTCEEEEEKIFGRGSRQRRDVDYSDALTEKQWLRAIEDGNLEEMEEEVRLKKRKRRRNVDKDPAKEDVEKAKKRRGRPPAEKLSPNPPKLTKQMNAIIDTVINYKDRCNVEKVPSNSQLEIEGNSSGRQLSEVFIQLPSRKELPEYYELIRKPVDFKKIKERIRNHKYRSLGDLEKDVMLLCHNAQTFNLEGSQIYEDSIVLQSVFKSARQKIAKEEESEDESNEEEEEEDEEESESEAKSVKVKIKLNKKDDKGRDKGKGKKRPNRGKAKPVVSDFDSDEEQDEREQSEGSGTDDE
Target sequence in this assay (P40337 whole entry): as the sequence (P40337 whole entry, looked up, other chains not shown) above

[18] = target: T7, von Hippel-Lindau disease tumor suppressor/SWI/SNF-related matrix-associated actin-dependent regulator of chromatin subfamily A member 2; assay: PROTAC activity at SMARCA2/VHL in human MV4-11 cells assessed as degradation of SMARCA2 measured for 24 hrs by Western blot analysis; assay type: cell-based
Target sequence in this assay (P51531 whole entry): as the sequence (P51531 whole entry) above
Target sequence in this assay (P40337 whole entry): as the sequence (P40337 whole entry, looked up, other chains not shown) above

[19] = target: T7, von Hippel-Lindau disease tumor suppressor/SWI/SNF-related matrix-associated actin-dependent regulator of chromatin subfamily A member 2; assay: PROTAC activity at SMARCA2/VHL in human MV4-11 cells assessed as degradation of SMARCA2 measured for 24 hrs by Western blot analysis relative to control; assay type: cell-based
[20] = target: T8, Androgen receptor (Homo sapiens, UniProt P10275); assay: Induction of AR degradation in human HeLa cells; assay type: cell-based
T8 sequence (P10275 whole entry): T2 sequence (whole entry)

[21] = target: T1, von Hippel-Lindau disease tumor suppressor/Bromodomain-containing protein 4; assay: Protac activity at BRD4/VHL (unknown origin)

Compound: Cc1ncsc1-c1ccc(CNC(=O)[C@@H]2C[C@@H](O)CN2C(=O)[C@@H](NC(=O)COCCOCCOCCNC(=O)C[C@@H]2N=C(c3ccc(Cl)cc3)c3c(sc(C)c3C)-n3c(C)nnc32)C(C)(C)C)cc1
Emax [1]: > 90%
Emax [2]: > 90%
Activity [3]: 90%
Emax [4]: > 90%

Compound: CC/C(=C(\c1ccc(O)cc1)c1ccc(OCCN(C)C(=O)COCCOCCOCCOc2cccc(C(=O)c3csc([C@@H]4CCCN4C(=O)[C@@H](NC(=O)[C@H](C)NC)C4CCCCC4)n3)c2)cc1)c1ccccc1
Emax [5]: > 70%
DC50 [6]: 1000 nM
Emax [7]: 50%
Emax [8]: > 70%

Compound: COc1cc(/C=C2\SC(=O)N(CCOCCC(=O)N[C@H](C(=O)N3C[C@H](O)C[C@H]3C(=O)NCc3ccc(-c4scnc4C)cc3)C(C)(C)C)C2=O)ccc1Oc1ccc(C#N)cc1C(F)(F)F
DC50 [9]: 100 nM
Emax [10]: > 86%
Emax [11]: 86%

Compound: COc1cc(C(=O)O)ccc1NC(=O)[C@@H]1N[C@@H](CC(C)(C)C)[C@](C#N)(c2ccc(Cl)cc2F)[C@H]1c1cccc(Cl)c1F [IDASANUTLIN]
Activity [12]: 64%

Other lines, results leading:

Emax [4]: > 50%
DC50 [13]: < 1 nM
Emax [14]: > 90%
Compound: Cc1ncsc1-c1ccc([C@H](C)NC(=O)[C@@H]2C[C@@H](O)CN2C(=O)[C@@H](NC(=O)COCCCOCCNC(=O)C[C@@H]2N=C(c3ccc(Cl)cc3)c3c(sc(C)c3C)-n3c(C)nnc32)C(C)(C)C)cc1

DC50 [15]: 11 nM
IC50 [16]: 28 nM
DC50 [17]: 6 nM
DC50 [18]: 6 nM
Emax [19]: 100%
Compound: Cc1ncsc1-c1ccc(CNC(=O)[C@@H]2C[C@@H](O)CN2C(=O)[C@@H](NC(=O)C2(F)CC2)C(C)(C)C)c(OCCOc2ccc(CN3CCN(c4cc(-c5ccccc5O)nnc4N)CC3)cc2)c1

DC50 [20]: 10000 nM
Compound: COc1ccc(C2=N[C@H](c3ccc(Cl)cc3)[C@H](c3ccc(Cl)cc3)N2C(=O)N2CCN(CC(=O)NCCOCCOCCOCC(=O)Nc3ccc(OC[C@](C)(O)C(=O)Nc4ccc([N+](=O)[O-])c(C(F)(F)F)c4)cc3)C(=O)C2)c(OC(C)C)c1

Emax [4]: > 90%
DC50 [21]: 10 nM
Compound: CC(=O)N[C@H](C(=O)N1C[C@@H](O)C[C@H]1C(=O)NCc1ccc(-c2scnc2C)cc1)C(C)(C)SCCCCCNC(=O)C[C@@H]1N=C(c2ccc(Cl)cc2)c2c(sc(C)c2C)-n2c(C)nnc21

Emax [5]: > 70%
DC50 [6]: 1000 nM
Emax [8]: > 80%
Compound: CC/C(=C(\c1ccc(O)cc1)c1ccc(OCCN(C)C(=O)COCCOCCOCCOc2ccc(O[C@H]3C[C@@H](C(=O)N[C@@H]4CCCc5ccccc54)N(C(=O)[C@@H](NC(=O)[C@H](C)NC)C4CCCCC4)C3)cc2)cc1)c1ccccc1
